Laboratory results: ChEMBL document CHEMBL3774354, “Discovery of Selective Histone Deacetylase 6 Inhibitors Using the Quinazoline as the Cap for the Treatment of Cancer” (J Med Chem, 2016)
The source made the active and inactive calls. The calls are words filed in the database; no cut-off is given here.

Assays:
[1] = target: Histone deacetylase 1/2/3 (Homo sapiens) (UniProt Q13547+O15379+Q92769); conditions: MV4-11, 1000 nM
Description: Inhibition of HDAC1/2/3 in human MV4-11 cells assessed as upregulation of histone H3 acetylation at 1000 nM after 6 hrs by Western blot analysis

[2] = target: Histone deacetylase 7 (Homo sapiens) (UniProt Q8WUI4); assay: Inhibition of recombinant HDAC7 (unknown origin) using AMC labeled AC-peptide as substrate at 10 uM incubated for 1 hr by fluorescence analysis
Chain of Histone deacetylase 7 (Homo sapiens) (Q8WUI4 whole entry): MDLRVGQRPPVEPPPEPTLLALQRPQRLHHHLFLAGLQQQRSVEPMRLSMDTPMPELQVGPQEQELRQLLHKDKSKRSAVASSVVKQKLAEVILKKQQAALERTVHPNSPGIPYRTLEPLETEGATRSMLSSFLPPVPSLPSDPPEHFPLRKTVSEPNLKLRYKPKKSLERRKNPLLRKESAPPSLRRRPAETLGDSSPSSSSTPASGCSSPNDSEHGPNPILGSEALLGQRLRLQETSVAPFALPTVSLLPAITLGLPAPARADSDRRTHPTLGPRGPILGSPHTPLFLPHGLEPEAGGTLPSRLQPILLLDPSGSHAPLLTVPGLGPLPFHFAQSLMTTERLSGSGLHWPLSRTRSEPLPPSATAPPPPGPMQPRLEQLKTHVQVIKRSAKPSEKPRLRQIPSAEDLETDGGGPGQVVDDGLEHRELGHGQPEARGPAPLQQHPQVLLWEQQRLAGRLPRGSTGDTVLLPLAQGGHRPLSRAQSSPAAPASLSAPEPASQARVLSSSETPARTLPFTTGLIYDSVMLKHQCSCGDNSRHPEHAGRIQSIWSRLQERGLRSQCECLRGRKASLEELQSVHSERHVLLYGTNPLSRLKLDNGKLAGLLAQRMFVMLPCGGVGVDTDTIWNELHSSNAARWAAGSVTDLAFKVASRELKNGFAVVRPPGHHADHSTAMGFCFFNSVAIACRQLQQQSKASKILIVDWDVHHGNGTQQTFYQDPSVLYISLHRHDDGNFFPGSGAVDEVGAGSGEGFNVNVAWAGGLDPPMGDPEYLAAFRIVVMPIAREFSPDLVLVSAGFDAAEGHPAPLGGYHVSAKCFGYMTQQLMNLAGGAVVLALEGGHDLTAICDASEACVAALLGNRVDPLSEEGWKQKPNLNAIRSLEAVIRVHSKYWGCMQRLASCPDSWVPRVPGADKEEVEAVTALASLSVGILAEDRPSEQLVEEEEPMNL

[3] = Cytotoxicity against human U266 cells after 72 hrs by MTT assay; assay type: functional, cell-based; conditions: U-266, 72 h
HepG2 = assay: Cytotoxicity against human HepG2 cells after 72 hrs by MTT assay; assay type: functional, cell-based; conditions: HepG2, 72 h
[4] = Cmax in Sprague-Dawley rat at 12 mg/kg, po measured up to 24 hrs by LC-MS/MS analysis; assay type: ADME, organism-based; design: dose 12 mg/kg, route oral; conditions: in vivo
Mus musculus [5] = assay: Toxicity in NOD/SCID mouse xenografted with human MV4-11 cells assessed as change in body weight at 50 mg/kg, iv q2d for 12 days; assay type: organism-based; conditions: in vivo, 288 h
[6] = AUC (0 to infinity) in Sprague-Dawley rat at 12 mg/kg, iv administered by bolus injection measured up to 24 hrs by LC-MS/MS analysis; assay type: ADME, organism-based; design: dose 12 mg/kg, route intravenous, time infinity; conditions: in vivo
[7] = Antitumor activity against human HCT116 cells xenografted in Balb/c nude mouse assessed as tumor mass change at 25 mg/kg, po q2d for 8 days; assay type: functional, HCT-116
K562 = assay: Cytotoxicity against human K562 cells after 72 hrs by MTT assay; assay type: functional, cell-based; conditions: K562, 72 h
Mus musculus [8] = assay: Toxicity in Balb/c nude mouse xenografted with human HCT116 cells assessed as death at 50 mg/kg, iv q2d for 9 days; assay type: organism-based, HCT-116; conditions: in vivo, 216 h
HeLa [9] = assay: Induction of histone H3 acetylation in human HeLa cells incubated for 6 hrs by cytoblot assay; assay type: functional, cell-based
[10] = Cmax in Sprague-Dawley rat at 12 mg/kg, iv administered by bolus injection measured up to 24 hrs by LC-MS/MS analysis; assay type: ADME, organism-based; design: dose 12 mg/kg, route intravenous; conditions: in vivo
Mus musculus [11] = assay: Toxicity in NOD/SCID mouse xenografted with human Ramos cells assessed as death at 40 mg/kg, po q2d for 6 days; assay type: organism-based; conditions: in vivo, 144 h
A549 = assay: Cytotoxicity against human A549 cells after 72 hrs by MTT assay; assay type: functional, cell-based; conditions: A549, 72 h
Histone deacetylase 4 = Histone deacetylase 4 (Homo sapiens, UniProt P56524); assay: Inhibition of recombinant HDAC4 (unknown origin) using AMC labeled AC-peptide as substrate incubated for 1 hr by fluorescence analysis
Chain of Histone deacetylase 4 (P56524 whole entry): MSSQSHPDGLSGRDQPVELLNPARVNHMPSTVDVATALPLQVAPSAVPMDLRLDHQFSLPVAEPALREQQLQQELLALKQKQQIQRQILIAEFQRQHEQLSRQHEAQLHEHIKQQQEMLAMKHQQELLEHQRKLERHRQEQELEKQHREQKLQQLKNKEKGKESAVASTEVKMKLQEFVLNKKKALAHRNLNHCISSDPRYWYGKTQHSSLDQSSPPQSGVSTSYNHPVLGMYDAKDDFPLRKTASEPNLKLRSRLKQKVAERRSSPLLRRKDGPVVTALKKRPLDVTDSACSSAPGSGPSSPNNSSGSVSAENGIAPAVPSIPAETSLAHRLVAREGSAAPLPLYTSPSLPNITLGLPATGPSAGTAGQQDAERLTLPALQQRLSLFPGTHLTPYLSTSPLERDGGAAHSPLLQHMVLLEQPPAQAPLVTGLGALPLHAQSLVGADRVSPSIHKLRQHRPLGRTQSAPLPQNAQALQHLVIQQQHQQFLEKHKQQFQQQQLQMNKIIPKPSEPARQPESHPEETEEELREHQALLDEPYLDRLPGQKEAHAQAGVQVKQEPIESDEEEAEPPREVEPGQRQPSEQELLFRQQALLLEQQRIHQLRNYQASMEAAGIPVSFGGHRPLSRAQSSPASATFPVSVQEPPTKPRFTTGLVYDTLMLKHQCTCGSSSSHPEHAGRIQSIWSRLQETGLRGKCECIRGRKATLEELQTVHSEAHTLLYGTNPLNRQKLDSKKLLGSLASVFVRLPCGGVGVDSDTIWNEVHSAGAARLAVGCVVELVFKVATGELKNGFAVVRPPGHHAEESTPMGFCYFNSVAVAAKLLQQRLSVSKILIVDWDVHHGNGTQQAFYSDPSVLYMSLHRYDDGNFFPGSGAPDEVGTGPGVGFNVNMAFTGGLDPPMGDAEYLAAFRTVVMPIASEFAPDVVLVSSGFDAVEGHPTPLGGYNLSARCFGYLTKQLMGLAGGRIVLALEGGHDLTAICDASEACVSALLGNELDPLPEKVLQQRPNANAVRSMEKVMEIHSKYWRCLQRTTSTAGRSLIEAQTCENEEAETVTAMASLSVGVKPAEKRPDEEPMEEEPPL

[12] = Volume of distribution at steady state in Sprague-Dawley rat at 12 mg/kg, iv administered by bolus injection measured up to 24 hrs by LC-MS/MS analysis; assay type: ADME, organism-based; conditions: in vivo, read-out: Vdss
Ramos [13] = assay: Antitumor activity against human Ramos cells xenografted in orally dosed NOD/SCID mouse assessed as tumor mass reduction administered as q2d for 6 days; assay type: functional, organism-based
Ramos [14] = assay: Antitumor activity against human Ramos cells xenografted in NOD/SCID mouse assessed as tumor mass change at 40 mg/kg, po q2d for 6 days; assay type: functional
HeLa [15] = assay: Antiproliferative activity against human HeLa cells after 72 hrs by MTT assay; assay type: functional, cell-based
MV4-11 = assay: Cytotoxicity against human MV4-11 cells after 72 hrs by MTT assay; assay type: functional, cell-based; conditions: MV4-11, 72 h
[16] = Antitumor activity against human HCT116 cells xenografted in Balb/c nude mouse assessed as tumor mass change at 50 mg/kg, iv q2d for 9 days; assay type: functional, HCT-116
Histone deacetylase 9 = Histone deacetylase 9 (Homo sapiens, UniProt Q9UKV0); assay: Inhibition of recombinant HDAC9 (unknown origin) using AMC labeled AC-peptide as substrate at 10 uM incubated for 1 hr by fluorescence analysis
Chain of Histone deacetylase 9 (Q9UKV0 whole entry): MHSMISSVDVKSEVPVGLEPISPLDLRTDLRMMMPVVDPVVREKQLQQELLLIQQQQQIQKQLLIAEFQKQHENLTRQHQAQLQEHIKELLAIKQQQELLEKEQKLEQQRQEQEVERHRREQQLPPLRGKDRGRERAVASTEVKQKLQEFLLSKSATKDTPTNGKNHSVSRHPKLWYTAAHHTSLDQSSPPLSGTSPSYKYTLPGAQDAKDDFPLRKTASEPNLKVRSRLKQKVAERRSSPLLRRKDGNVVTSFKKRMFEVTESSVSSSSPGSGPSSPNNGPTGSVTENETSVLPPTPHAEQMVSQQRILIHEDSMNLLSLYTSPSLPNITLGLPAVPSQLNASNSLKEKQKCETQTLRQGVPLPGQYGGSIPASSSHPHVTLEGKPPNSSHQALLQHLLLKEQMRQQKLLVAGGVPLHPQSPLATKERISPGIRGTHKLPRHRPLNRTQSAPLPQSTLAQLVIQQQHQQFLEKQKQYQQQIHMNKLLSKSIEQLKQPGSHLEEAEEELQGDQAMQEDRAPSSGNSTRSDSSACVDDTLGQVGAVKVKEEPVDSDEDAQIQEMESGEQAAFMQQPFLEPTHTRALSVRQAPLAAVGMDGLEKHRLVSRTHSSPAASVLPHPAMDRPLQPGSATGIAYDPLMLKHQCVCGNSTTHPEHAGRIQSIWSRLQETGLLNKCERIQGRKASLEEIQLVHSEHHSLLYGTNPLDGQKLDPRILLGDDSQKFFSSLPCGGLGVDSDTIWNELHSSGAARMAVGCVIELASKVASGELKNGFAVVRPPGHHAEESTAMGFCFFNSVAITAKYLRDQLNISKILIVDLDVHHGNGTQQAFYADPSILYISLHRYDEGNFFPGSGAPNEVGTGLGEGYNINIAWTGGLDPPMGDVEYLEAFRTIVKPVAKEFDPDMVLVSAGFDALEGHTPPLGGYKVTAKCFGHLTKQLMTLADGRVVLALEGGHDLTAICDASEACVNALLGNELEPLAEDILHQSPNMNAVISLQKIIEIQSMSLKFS

Mus musculus [17] = assay: Toxicity in Balb/c nude mouse xenografted with human HCT116 cells assessed as change in body weight at 50 mg/kg, iv q2d for 9 days; assay type: organism-based, HCT-116; conditions: in vivo, 216 h
[18] = target: T1, Protein deacetylase HDAC6 (Homo sapiens) (UniProt Q9UBN7); assay: Inhibition of HDAC6 in human MV4-11 cells assessed as upregulation of alpha- tubulin acetylation after 6 hrs by Western blot analysis; assay type: cell-based
T1 sequence (whole entry): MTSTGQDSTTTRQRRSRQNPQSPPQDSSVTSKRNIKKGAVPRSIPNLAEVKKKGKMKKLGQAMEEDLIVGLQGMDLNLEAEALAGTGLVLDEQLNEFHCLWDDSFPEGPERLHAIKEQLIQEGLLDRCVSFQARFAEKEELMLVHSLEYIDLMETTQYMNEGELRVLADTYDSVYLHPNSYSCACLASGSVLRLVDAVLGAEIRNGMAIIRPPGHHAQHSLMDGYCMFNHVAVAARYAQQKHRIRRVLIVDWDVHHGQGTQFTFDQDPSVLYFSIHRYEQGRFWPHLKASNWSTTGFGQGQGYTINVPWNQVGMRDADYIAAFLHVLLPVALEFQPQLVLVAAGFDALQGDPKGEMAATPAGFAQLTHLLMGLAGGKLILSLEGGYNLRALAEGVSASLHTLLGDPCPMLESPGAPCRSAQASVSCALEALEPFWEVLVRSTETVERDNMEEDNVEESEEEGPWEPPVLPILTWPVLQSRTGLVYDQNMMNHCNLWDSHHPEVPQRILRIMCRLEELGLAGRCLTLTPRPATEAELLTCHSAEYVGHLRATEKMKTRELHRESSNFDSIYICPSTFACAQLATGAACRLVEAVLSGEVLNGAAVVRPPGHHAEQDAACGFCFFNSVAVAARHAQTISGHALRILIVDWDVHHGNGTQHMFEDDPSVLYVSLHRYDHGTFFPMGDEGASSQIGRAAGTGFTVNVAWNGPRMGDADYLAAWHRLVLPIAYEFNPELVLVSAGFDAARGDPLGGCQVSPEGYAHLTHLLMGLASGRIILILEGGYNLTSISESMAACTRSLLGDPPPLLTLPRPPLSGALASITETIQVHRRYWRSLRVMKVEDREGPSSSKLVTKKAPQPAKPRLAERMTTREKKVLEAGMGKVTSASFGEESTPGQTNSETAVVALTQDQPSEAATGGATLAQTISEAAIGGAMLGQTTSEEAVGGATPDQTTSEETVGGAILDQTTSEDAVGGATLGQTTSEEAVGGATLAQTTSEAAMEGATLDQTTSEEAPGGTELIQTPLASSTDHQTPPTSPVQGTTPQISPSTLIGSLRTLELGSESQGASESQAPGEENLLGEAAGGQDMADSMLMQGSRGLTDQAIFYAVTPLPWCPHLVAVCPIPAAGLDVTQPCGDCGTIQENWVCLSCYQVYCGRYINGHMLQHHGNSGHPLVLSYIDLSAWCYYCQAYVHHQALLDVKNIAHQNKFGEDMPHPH

Histone deacetylase 7 = Histone deacetylase 7 (Homo sapiens, UniProt Q8WUI4)
Chain of Histone deacetylase 7 (Q8WUI4 whole entry): as the sequence (Q8WUI4 whole entry) above
Description: Inhibition of recombinant HDAC7 (unknown origin) using AMC labeled AC-peptide as substrate incubated for 1 hr by fluorescence analysis

[19] = target: T2, Protein deacetylase HDAC6 (Homo sapiens, UniProt Q9UBN7); assay: Inhibition of HDAC6 in human HeLa cells assessed as induction of tubulin acetylation incubated for 6 hrs by cytoblot assay; assay type: cell-based
T2 sequence (Q9UBN7 whole entry): T1 sequence (whole entry)

Compound: COc1ccc(N(C)c2nc(C)nc3ccccc23)cc1OCCCC(=O)NO
- inhibition [1]: Active
- inhibition [2]: inactive
- IC50 [3]: 14 nM
- IC50 (HepG2): 41 nM
- Cmax [4]: 238 ng/mL
- Activity (Mus musculus [5]): -3.8%
- AUC(0-inf) [6]: 2430 ng·h/mL
- Activity [7]: 60.4%
- IC50 (K562): 63 nM
- Activity (Mus musculus [8]): Non-toxic
- EC50 (HeLa [9]): 1740 nM
- Cmax [10]: 2210 ng/mL
- Activity (Mus musculus [11]): Non-toxic
- IC50 (A549): 104 nM
- IC50 (Histone deacetylase 4): > 10000 nM
- Vd [12]: 61.3 L/kg
- inhibition (Ramos [13]): Dose-dependent effect
- Activity (Ramos [14]): 22.5%
- IC50 (HeLa [15]): 49 nM
- IC50 (MV4-11): 60 nM
- Activity [16]: 76.3%
- inhibition (Histone deacetylase 9): inactive
- Activity (Mus musculus [17]): -5.7%
- inhibition [18]: Dose-dependent effect
- IC50 (Histone deacetylase 7): > 10000 nM
- EC50 [19]: 58.9 nM
